The values that follow come from ChEMBL document CHEMBL5241118, “4-Aminopyrazolopyrimidine scaffold and its deformation in the design of tyrosine and serine/threonine kinase inhibitors in medicinal chemistry” (RSC Med Chem, 2022).

Data set [1] concerns the target Receptor tyrosine-protein kinase erbB-3 (Homo sapiens, UniProt P21860). Briefly: Inhibition of HER3 (unknown origin).
The nature of data set [2]: Clearance in rat at 1 mg/kg, iv. The class given is ADME, organism-based. The settings on record: in vivo.
Data set [3] in a line: Half life in rat at 3 mg/kg , po. The class given is ADME, organism-based. The settings on record: in vivo.
Data set [4] can be described thus: Half life in rat at 1 mg/kg, iv. The class given is ADME, organism-based. Conditions: in vivo.
Data set [5] in a line: Oral bioavailability in rat at 3 mg/kg. The class given is ADME, organism-based. Conditions: in vivo.
Data set [6] has as its target T1, Fibroblast growth factor receptor 2 (Homo sapiens, UniProt P21802). Briefly: Inhibition of human recombinant FGFR2 in the presence of ATP at 0.8 uM measured after 1 hr by fluorescence based assay.
A short description of data set [7]: AUC in rat at 3 mg/kg, po. Format: ADME, organism-based. On the set-up: dose 3 mg/kg, route po. Conditions: in vivo.
Data set [8] deals with Epidermal growth factor receptor (Homo sapiens, UniProt P00533, L858R). Briefly: Inhibition of EGFR L858R mutant (unknown origin).
Data set [9] addresses T2, Epidermal growth factor receptor (Homo sapiens, UniProt P00533). In words: Inhibition of wild type EGFR (unknown origin).
In data set [10] the target is Epidermal growth factor receptor (Homo sapiens, UniProt P00533, L858R/T790M). In words: Inhibition of EGFR L858R/T790M mutant (unknown origin).
A further data set has as its system MV4-11. In words: Antitumor activity against human MV4-11 cells xenografted in athymic nu/nu mouse model assessed as tumor growth inhibition at 50 mg/kg administered a day measured after 14 days relative to control. Format: functional. The settings on record: MV4-11, 336 h, time 14 day, read-out: TGI. For orientation: A xenograft is tissue or cells of one species grown in another, often human tumour cells in immunodeficient mice.

In data set [11] the target is Receptor tyrosine-protein kinase erbB-2 (Homo sapiens, UniProt P04626). Briefly: Inhibition of HER2 (unknown origin).
For data set [12], the target named is Receptor tyrosine-protein kinase erbB-4 (Homo sapiens, UniProt Q15303). In words: Inhibition of HER4 (unknown origin).
In data set [13] the target is Tyrosine-protein kinase JAK3 (Homo sapiens, UniProt P52333). In words: Inhibition of JAK3 (unknown origin).
The target of data set [14] is T2, Epidermal growth factor receptor. In words: Inhibition of EGFR (unknown origin).
In data set [15] the target is T3, Phosphatidylinositol 4,5-bisphosphate 3-kinase catalytic subunit delta isoform (Homo sapiens, UniProt O00329).
T3 sequence (O00329 whole entry): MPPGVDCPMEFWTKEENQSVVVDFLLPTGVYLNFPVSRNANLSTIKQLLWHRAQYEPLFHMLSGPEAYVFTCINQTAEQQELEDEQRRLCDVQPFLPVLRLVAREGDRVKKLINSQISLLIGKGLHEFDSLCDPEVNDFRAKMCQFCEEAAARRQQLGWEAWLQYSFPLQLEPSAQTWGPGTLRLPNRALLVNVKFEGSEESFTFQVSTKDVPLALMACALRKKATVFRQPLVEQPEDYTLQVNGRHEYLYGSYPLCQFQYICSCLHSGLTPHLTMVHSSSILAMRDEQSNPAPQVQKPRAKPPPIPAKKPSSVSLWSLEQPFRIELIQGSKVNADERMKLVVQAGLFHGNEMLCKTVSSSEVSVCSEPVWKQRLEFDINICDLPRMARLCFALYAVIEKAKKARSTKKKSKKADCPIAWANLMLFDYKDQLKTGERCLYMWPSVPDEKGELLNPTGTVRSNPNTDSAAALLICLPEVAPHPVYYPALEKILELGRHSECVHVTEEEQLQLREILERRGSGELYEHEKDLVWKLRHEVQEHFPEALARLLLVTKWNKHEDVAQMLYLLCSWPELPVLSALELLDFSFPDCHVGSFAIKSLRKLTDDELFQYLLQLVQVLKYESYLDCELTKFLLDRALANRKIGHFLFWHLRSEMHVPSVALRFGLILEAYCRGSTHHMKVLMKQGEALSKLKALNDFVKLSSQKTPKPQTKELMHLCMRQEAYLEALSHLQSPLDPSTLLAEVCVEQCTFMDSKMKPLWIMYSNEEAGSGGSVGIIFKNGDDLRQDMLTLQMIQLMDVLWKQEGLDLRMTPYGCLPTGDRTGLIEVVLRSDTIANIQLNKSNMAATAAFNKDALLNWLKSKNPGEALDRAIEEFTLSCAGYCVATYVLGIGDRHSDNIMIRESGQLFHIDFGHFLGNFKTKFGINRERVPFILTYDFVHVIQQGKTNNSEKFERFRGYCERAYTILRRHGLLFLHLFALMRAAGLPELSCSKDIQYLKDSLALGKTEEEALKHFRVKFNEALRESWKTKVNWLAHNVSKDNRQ
Briefly: Inhibition of PI3Kdelta (unknown origin) at 1 uM.

A further data set deals with BaF3. In words: cells. Conditions: Mus musculus, BaF3, 72 h.
The test system of data set [16] is NCI-H1581. In words: animal or person. The settings on record: Mus musculus, BALB/c, NCI-H1581, 480 h, read-out: TGI.
Description: Antitumor activity against human NCI-H1581 cells xenografted in BALB/c mouse assessed as tumor growth inhibition at 50 mg/kg, ip administered once daily for 20 days measured after 32 days by LC_MS/MS analysis relative to control
A short description of data set [17]: Half life in CD1 mouse at 3 mg/kg, ip by LC-MS/MS analysis. The class given is ADME, organism-based. Conditions: in vivo.
Data set [18] can be described thus: AUC (0 to t) in CD1 mouse at 1 mg/kg, iv by LC-MS/MS analysis. More on the design: dose 1 mg/kg, route iv. The settings on record: in vivo. The class given is ADME, organism-based.
Data set [19] can be described thus: Half life in CD1 mouse at 1 mg/kg, iv by LC-MS/MS analysis. Format: ADME, organism-based. The settings on record: in vivo.
Data set [20] deals with NCI-H1581. Briefly: animal or person. The settings on record: Mus musculus, BALB/c, NCI-H1581, 480 h, read-out: TGI. This is another data set of the same source.
Description: Antitumor activity against human NCI-H1581 cells xenografted in BALB/c mouse assessed as tumor growth inhibition at 10 mg/kg, ip administered once daily for 20 days measured after 32 days by LC_MS/MS analysis relative to control
Data set [21] is described as follows: AUC (0 to t) in CD1 mouse at 3 mg/kg, ip by LC-MS/MS analysis. Format: ADME, organism-based. More on the design: dose 3 mg/kg, route ip. Conditions: in vivo.
For data set [22], the target named is Cytoplasmic tyrosine-protein kinase BMX (Homo sapiens, UniProt P51813). In words: Inhibition of BMX (unknown origin).
Sequence of Cytoplasmic tyrosine-protein kinase BMX (P51813 whole entry): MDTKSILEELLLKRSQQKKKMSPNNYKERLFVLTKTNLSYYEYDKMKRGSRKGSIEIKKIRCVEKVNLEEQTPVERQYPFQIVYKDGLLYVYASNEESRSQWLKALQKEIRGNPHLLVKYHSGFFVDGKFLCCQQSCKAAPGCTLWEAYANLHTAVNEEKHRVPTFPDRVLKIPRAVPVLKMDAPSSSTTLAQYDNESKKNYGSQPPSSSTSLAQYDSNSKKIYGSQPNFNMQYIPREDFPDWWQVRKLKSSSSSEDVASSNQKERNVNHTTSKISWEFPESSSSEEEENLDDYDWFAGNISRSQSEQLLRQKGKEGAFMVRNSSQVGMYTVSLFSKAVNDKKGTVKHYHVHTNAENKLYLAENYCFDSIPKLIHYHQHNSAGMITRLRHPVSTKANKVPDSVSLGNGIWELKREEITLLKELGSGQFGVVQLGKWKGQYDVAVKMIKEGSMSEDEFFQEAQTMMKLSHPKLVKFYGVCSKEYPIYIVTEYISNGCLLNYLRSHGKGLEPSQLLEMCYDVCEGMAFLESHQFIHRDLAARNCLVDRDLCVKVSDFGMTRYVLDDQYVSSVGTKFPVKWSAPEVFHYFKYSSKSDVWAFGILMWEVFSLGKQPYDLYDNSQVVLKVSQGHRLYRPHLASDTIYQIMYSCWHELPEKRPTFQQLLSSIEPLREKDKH
The target of data set [23] is Fibroblast growth factor receptor 3 (Homo sapiens, UniProt P22607). Briefly: Inhibition of human recombinant FGFR3.
Data set [24] has as its system NCI-H1581. In words: Antitumor activity against human NCI-H1581 cells xenografted in athymic nu/nu mouse model assessed as tumor growth inhibition at 25 mg/kg measured after 14 days relative to control. The settings on record: NCI-H1581, 336 h, read-out: TGI.
The target in data set [25] is Fibroblast growth factor receptor 4 (Homo sapiens, UniProt P22455). Briefly: Inhibition of human recombinant FGFR4.
Sequence of Fibroblast growth factor receptor 4 (P22455 whole entry): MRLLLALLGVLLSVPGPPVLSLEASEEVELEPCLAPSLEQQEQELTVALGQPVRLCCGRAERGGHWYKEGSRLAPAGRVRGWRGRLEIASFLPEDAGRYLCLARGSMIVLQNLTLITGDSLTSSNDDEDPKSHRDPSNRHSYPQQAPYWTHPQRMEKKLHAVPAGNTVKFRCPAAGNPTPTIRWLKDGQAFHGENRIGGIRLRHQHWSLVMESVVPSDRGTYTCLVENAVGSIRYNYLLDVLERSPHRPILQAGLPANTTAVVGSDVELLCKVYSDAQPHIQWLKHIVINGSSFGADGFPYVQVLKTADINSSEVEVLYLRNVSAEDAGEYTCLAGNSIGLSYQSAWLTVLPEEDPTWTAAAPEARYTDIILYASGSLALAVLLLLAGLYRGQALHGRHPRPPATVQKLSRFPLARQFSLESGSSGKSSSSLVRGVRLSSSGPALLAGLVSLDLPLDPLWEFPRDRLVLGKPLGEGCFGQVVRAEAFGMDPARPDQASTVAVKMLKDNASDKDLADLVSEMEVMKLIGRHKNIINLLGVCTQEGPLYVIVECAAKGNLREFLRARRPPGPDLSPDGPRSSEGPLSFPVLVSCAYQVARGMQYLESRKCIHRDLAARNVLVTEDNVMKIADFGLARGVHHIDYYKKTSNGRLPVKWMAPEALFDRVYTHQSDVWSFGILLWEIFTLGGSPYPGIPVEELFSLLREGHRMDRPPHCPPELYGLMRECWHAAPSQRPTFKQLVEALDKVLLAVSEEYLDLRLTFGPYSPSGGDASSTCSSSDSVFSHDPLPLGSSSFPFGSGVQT
A further data set is described as follows: animal or person. The settings on record: Homo sapiens, HCC, 336 h, time 14 day, read-out: TGI. Format: functional.
Data set [26] deals with Fibroblast growth factor receptor 1 (Homo sapiens, UniProt P11362). Briefly: Inhibition of human recombinant FGFR1.
Data set [27] deals with T1, Fibroblast growth factor receptor 2. In words: Inhibition of human recombinant FGFR2.

T2 sequence (P00533 whole entry): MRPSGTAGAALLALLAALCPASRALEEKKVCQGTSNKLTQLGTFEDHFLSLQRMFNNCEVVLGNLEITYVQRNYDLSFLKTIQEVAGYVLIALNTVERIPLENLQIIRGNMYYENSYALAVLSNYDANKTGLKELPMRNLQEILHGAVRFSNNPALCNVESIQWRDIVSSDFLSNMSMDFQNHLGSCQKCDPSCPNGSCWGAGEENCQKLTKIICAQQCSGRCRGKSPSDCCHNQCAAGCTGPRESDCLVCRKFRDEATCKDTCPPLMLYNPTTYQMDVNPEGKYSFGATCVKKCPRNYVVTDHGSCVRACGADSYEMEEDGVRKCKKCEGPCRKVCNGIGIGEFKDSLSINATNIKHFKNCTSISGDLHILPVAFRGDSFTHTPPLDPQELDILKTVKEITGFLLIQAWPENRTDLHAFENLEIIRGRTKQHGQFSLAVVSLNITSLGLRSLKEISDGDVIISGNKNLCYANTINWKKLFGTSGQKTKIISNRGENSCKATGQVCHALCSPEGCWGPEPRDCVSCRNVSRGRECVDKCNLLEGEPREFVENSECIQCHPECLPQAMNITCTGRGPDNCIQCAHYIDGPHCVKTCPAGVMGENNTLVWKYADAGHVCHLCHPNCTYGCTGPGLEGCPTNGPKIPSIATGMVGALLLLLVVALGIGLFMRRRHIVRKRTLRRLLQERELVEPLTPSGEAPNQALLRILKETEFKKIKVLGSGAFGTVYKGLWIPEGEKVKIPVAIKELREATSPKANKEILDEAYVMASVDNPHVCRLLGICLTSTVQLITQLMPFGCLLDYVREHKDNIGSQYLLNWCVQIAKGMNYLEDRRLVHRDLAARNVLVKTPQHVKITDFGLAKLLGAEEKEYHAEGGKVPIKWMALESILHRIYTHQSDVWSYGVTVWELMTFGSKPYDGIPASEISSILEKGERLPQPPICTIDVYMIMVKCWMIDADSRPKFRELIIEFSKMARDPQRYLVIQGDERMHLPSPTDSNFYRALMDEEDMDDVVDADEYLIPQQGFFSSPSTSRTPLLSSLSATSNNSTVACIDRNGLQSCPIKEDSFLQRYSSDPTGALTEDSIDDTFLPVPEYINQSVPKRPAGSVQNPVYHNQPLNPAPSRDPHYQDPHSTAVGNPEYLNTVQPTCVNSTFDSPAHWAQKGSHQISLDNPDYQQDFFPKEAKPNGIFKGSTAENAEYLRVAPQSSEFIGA
T1 sequence (P21802 whole entry): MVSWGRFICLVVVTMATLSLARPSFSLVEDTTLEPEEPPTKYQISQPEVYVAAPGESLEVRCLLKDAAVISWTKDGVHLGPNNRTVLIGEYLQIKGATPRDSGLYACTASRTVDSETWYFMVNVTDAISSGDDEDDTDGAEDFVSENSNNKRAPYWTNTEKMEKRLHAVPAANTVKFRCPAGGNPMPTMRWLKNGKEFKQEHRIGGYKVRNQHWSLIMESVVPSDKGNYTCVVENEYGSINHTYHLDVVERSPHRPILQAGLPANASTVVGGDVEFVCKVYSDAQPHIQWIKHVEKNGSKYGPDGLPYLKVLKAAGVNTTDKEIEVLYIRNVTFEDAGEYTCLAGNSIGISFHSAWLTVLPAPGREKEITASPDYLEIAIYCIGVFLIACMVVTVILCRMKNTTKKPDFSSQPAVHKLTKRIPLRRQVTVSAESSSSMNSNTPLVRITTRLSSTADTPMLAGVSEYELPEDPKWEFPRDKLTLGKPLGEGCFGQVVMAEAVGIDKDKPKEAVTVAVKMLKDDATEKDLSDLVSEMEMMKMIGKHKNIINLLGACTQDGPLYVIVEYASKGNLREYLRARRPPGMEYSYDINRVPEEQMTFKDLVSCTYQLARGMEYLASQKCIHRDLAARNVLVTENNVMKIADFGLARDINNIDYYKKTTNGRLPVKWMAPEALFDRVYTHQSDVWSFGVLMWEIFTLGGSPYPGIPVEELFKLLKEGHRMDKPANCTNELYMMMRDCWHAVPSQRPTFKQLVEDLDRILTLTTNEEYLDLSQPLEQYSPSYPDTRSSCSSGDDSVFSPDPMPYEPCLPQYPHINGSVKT
Sequence of Receptor tyrosine-protein kinase erbB-3 (P21860 whole entry): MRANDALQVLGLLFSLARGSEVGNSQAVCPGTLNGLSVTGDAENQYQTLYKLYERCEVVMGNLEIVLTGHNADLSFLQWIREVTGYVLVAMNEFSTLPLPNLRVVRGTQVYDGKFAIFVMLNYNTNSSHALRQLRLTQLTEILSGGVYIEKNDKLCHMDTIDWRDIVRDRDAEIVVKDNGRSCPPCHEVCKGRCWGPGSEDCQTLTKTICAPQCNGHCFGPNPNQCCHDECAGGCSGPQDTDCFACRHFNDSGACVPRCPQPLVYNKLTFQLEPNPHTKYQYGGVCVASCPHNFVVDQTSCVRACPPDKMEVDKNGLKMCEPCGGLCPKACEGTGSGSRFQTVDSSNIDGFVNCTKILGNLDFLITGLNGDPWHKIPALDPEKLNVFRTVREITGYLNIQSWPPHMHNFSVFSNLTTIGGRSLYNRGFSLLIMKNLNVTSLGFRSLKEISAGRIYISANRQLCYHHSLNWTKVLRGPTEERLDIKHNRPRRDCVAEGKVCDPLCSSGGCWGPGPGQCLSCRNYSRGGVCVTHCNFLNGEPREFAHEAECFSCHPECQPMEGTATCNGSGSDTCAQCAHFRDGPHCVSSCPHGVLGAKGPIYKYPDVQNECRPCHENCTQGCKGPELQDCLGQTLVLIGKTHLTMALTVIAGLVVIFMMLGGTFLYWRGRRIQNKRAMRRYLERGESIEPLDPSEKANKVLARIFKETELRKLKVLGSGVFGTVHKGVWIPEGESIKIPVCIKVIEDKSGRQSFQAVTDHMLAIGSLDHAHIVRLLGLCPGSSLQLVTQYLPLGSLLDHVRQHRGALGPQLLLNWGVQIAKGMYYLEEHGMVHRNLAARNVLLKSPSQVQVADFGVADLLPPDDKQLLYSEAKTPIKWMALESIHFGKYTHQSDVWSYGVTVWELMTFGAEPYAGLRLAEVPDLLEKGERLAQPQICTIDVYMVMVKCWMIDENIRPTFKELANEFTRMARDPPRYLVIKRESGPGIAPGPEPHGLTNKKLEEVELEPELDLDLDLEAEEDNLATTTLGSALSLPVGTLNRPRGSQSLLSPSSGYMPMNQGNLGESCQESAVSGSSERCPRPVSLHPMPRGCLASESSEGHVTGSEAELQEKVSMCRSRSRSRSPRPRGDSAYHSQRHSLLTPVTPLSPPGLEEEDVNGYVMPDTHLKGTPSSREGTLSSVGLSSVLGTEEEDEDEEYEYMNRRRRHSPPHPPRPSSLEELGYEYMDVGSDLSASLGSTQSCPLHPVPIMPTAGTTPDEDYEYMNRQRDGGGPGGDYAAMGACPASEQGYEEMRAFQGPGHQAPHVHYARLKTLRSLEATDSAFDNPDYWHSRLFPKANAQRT
Description for BaF3: Antiproliferative activity against mouse BaF3/TEL-FGFR1 cells measured after 72 hrs by CCK8 assay

As for `C=CC(=O)Nc1cc(-c2nn(C3CCN(CCNC(=O)[C@H](C)CCC45CC6CC(CC(C6)C4)C5)CC3)c3ncnc(N)c23)ccc1OCc1ccccc1`, half-maximal inhibition in data set [1] (IC50) was put at 49 nM.

Consider `COCc1c(-c2cc3cc(C)cc(OC)c3s2)c2c(N)ncnn2c1CN1CCNC(=O)C1` [ROGARATINIB], for which, in data set [2], the clearance is 7.5 mL/min/kg. Besides, the half-life in [3] and in data set [4] was 12 h each time. This compound showed a bioavailability in data set [5] of 22%. The IC50 in data set [6] was below 1 nM. Moreover, the AUC in data set [7] came to 0.78 kg·h/L.

For `N#C/C(=C/C(=O)N1CCC[C@@H](n2nc(-c3cnc4[nH]ccc4c3)c3c(N)ncnc32)C1)C1CC1`, the IC50 in data set [8] was found to be 2 nM; in data set [9], 13 nM; in data set [10], 2.7 nM.

With `CN(C)CC(=O)N1CCC[C@@H](n2nc(-c3ccc(Oc4ccccc4)cc3)c3c(N)ncnc32)C1`, in the data set on MV4-11, the inhibition in vivo at 50 mg/kg was 88%.

On to `C=CC(=O)N1CCC[C@H](n2nc(C(=O)c3ccc(CC(=O)N(C)C)c(C)c3C)c3c(N)ncnc32)C1`, for which the IC50 was determined as 13 nM in [11], 8.5 nM in [12], 33 nM in data set [13] and 65 nM in data set [14].

With `C=CC(=O)N(CCn1nc(-c2cc(O)c(Br)c(F)c2)c2c(N)ncnc21)Cc1ccc(Cl)cc1`, the IC50 in data set [15] was determined as 9.7 nM.

`Cc1ccc2oc(-c3c4c(N)n[nH]c(=O)c4nn3-c3ccc(NC(=O)/C=C/CN(C)C)cc3)c(C)c2c1`: in the data set with BaF3, the half-inhibitory concentration (IC50) is below 0.3 nM. Further, the inhibition in vivo at 50 mg/kg in the data set on NCI-H1581 [16] came to 91.6%. Further, the half-life in [17] was 3.7 h; in data set [19], 1.39 h. Further, the AUCt in data set [18] was determined as 281 ng·h/mL; in [21] it was 704 ng·h/mL. Besides, in the data set with NCI-H1581 [20], the inhibition in vivo at 10 mg/kg was 74.4%.

As to `N#CN1CCC[C@@H](n2nc(-c3ccc(Oc4ccc(F)cc4F)cc3)c(C(N)=O)c2N)C1`, 0.9 nM corresponded to half-maximal inhibition in data set [22] (IC50).

As to `Nc1ncnc2c1c(-c1cc(O)c(Br)c(F)c1)nn2[C@H]1CCc2ccccc21`, half-maximal inhibition in [15] (IC50) required 1 nM.

In turn, `C=CC(=O)N[C@H]1C=C(C)c2c(-c3cnc4ccccc4c3)c3c(N)ncnc3n2C1` [CLN-081] showed an IC50 in [9] of 1.1 nM.

For the compound `C=CC(=O)N1CC[C@H](c2nc(-c3cc4cc(Br)cc(OC)c4s3)c3c(N)nccn23)C1`, the half-inhibitory concentration (IC50) in data set [23] was below 0.3 nM; in data set [25], 0.5 nM; in data set [26] it was below 0.3 nM; in data set [27], 1.1 nM. Besides, the inhibition in vivo at 25 mg/kg in the data set on NCI-H1581 [24] is 84.6%. Also, the inhibition in vivo at 50 mg/kg in “animal or person” turned out to be 97.8%.

What is called IC50 is the concentration needed to halve the response being measured. For orientation: clearance means a measure of how efficiently the substance is removed, as volume per time. A low value points to a low capacity for elimination. By half-life is commonly meant the time in which the quantity being followed falls by half. Read a high half-life as slow decline. The term bioavailability denotes the share of a dose that reaches the circulation, judged against a reference dose that is usually intravenous. Low values mean little systemic uptake, high ones much systemic uptake.
